{
  "source": "paper PMC9415903",
  "about": "“Confocal Laser Scanning Microscopy and Model Membranes to Study Translocation Mechanisms of Membrane Active Peptides” (Pharmaceutics, 2022)",
  "key": {"[1]": {"conditions": "DOPS and/or DOPE containing GUVs; cited from earlier work", "excerpt": "In GUVs that contain 30 mol% PE, all peptides internalize, but only TAT and NKCS are able to form transmembrane pores through which the fluorescent dyes Alexa Fluor 488 can pass."}, "[2]": {"experiment": "Peptide internalization and Alexa Fluor 488 efflux in POPS GUVs, confocal laser scanning microscopy", "assay_type": "in vitro ADME", "conditions": "room temperature; for Kint, peptide internalization rate constant: GUVs POPC/POPS/chol 50/30/20 mol%, 2 µM fluorescently labeled peptide, 180 mM glucose, 20 mM Hepes pH 7.5, CLSM fluorescence inside GUVs, fit F(t)=1−exp(−kint×t), data from three experiments averaged; for Pore formation (efflux of AF 488, lytic effect) / Internalization of peptide in GUVs: POPC/POPS/chol 50/30/20 mol% GUVs, 2 µM peptide, 30 min, CLSM", "procedure": "(§1) Giant unilamellar vesicles (GUVs) were obtained by the electroformation method as previously indicated. For that, 30 µL of different lipid mixtures (detailed in the Results section) were dissolved in chloroform and spread on indium tin oxide (ITO) glass slides (Sigma-Aldrich, Schnelldorf, Germany). After drying, the lipid film was gently hydrated with 200 mM sucrose dissolved in double distilled water, mixed with a fluorescent tracer, Alexa Fluor 488-maleimide (AF 488), at a concentration of 10 µM. The freshly prepared GUVs were then transferred in 180 mM glucose solution containing 20 mM Hepes, with a pH of 7.5. The samples were observed by confocal microscope at room temperature.\n(§2) The experiments were performed using a confocal laser scanning microscope (Nikon Ti-E, Tokyo, Japan), equipped with LU4 Four-Laser Module with AOTF, a Plan Fluor 40x DIC M N2 objective and a DS-F1camera. An Alexa Fluor 488 tracer was excited using a line of 457–514 nm argon ion laser, TAMRA-TAT peptide with a diode laser emitting at 561 nm, and Dy647P1-peptides with a 642 nm diode laser. To observe the accumulation and internalization of peptides and the efflux of fluorescent tracers, the freshly prepared GUVs were transferred to a solution of glucose containing 2 µM fluorescently labeled peptide, to provide a homogeneous distribution of peptides to membranes. For each type of experiment, at least 10–15 GUVs with a diameter of 30–40 μm from two independent experiments were analyzed. Successive images were collected using the Nis-Elements Advanced Research imaging software (Nikon) and then quantification of fluorescence was performed using Fiji ImageJ [14]. The resulting data were then analyzed with Origin Pro 8.5 (OriginLab Corporation, Northampton, MA, USA).\n(§3) For the present study, GUVs mimicking the mammalian plasma membrane were prepared as follows: POPC/cholesterol 80/20 mol%, POPC/POPE/cholesterol 50/30/20 mol% and POPC/POPS/cholesterol 50/30/20 mol%. The peptides fluorescently labeled (see Figure 1 for structure) were added at a concentration of 2 µM and the experiments were performed at room temperature.\n(§4) For kinetic traces, the time course of fluorescence intensity corresponding to peptides and Alexa Fluor 488 inside GUVs was measured. The data from three experiments were averaged and then fitted with a single rising exponential function to determine the values of internalization rates:F(t) = 1 − exp (−kint × t) (1) where t is time and kint is the peptide internalization rate constant.\n(§5) The intensity corresponding to release of tracer Alexa Fluor 488 from GUVs in the presence of peptides was also measured to determine the efflux rates, using a single exponential decay function:F(t) = exp (−keff × t) (2) where t is time and keff is the peptide efflux rate constant."}, "[3]": {"experiment": "Peptide internalization and Alexa Fluor 488 efflux in POPE GUVs, confocal laser scanning microscopy", "assay_type": "in vitro ADME", "conditions": "room temperature; for Kint, peptide internalization rate constant: GUVs POPC/POPE/chol 50/30/20 mol%, 2 µM fluorescently labeled peptide, 180 mM glucose, 20 mM Hepes pH 7.5, CLSM fluorescence inside GUVs, fit F(t)=1−exp(−kint×t), data from three experiments averaged", "procedure": "as §1, §2, §3, §4, §5"}, "[4]": {"experiment": "Peptide internalization and Alexa Fluor 488 efflux in neutral GUVs, confocal laser scanning microscopy", "assay_type": "in vitro ADME", "conditions": "POPC/chol 80/20 mol% GUVs; 2 µM peptide; room temperature; up to 30 min; CLSM", "procedure": "as §1, §2, §3"}, "[5]": {"experiment": "TAMRA-TAT internalization and Alexa Fluor 488 efflux in GUVs with increasing cholesterol", "assay_type": "in vitro ADME", "conditions": "40 mol% chol (POPC/POPE/POPS/chol 30/20/10/40 mol%); CLSM", "procedure": "as §1\nThe experiments were performed using a confocal laser scanning microscope (Nikon Ti-E, Tokyo, Japan), equipped with LU4 Four-Laser Module with AOTF, a Plan Fluor 40x DIC M N2 objective and a DS-F1camera. […] For each type of experiment, at least 10–15 GUVs with a diameter of 30–40 μm from two independent experiments were analyzed. Successive images were collected using the Nis-Elements Advanced Research imaging software (Nikon) and then quantification of fluorescence was performed using Fiji ImageJ [14]. The resulting data were then analyzed with Origin Pro 8.5 (OriginLab Corporation, Northampton, MA, USA). […]"}, "[6]": {"conditions": "POPC/POPE/chol 50/30/20 mol% GUVs, 2 µM peptide, 30 min, CLSM"}},
  "note": "“Also recorded” adds a separate entry of the source.",
  "data": [
    {"compound": "nona-arginine [R9]", "values": [
      {"measurement": "Pore formation", "setting": "[1]", "value": "able to form pores"}
    ]},
    {"compound": "Dy647P1-CGNKRTR [tLyP-1, Dy647P1-labeled tumor homing peptide, truncated linear form of cyclic peptide LyP-1]", "values": [
      {"measurement": "Kint, peptide internalization rate constant", "setting": "[2]", "value": "(0.75 ± 0.27) × 10^−3 s^−1"},
      {"measurement": "Pore formation (efflux of AF 488, lytic effect)", "setting": "[2]", "value": "just translocate without generating pores"},
      {"measurement": "Kint, peptide internalization rate constant", "setting": "[3]", "value": "(0.78 ± 0.03) × 10^−3 s^−1"},
      {"measurement": "Efflux of AF 488 (lytic effect, pore formation)", "setting": "[3]; [6]", "value": "without the release of AF 488"},
      {"measurement": "Efflux of Alexa Fluor 488 from GUVs", "setting": "[4]", "value": "Neither peptide internalization nor AF 488 efflux can be observed"}
    ]},
    {"compound": "Dy647P1-LRRISKDILTGKK [NKCS-[15-27]]", "values": [
      {"measurement": "Kint, peptide internalization rate constant", "setting": "[2]", "value": "(0.50 ± 0.23) × 10^−3 s^−1"},
      {"measurement": "Internalization of peptide in GUVs", "setting": "[2]", "value": "internalized"},
      {"measurement": "Pore formation (efflux of AF 488, lytic effect)", "setting": "[2]", "value": "no lytic effect; also recorded: just translocate without generating pores"},
      {"measurement": "Kint, peptide internalization rate constant", "setting": "[3]", "value": "(0.20 ± 0.04) × 10^−3 s^−1"},
      {"measurement": "Efflux of AF 488 (lytic effect, pore formation)", "setting": "[3]; [6]", "value": "without the release of AF 488"},
      {"measurement": "Internalization of peptide in GUVs", "setting": "[3]; [6]", "value": "internalized"},
      {"measurement": "Efflux of Alexa Fluor 488 from GUVs", "setting": "[4]", "value": "Neither peptide internalization nor AF 488 efflux can be observed"},
      {"measurement": "Internalization of peptide in GUVs", "setting": "[4]", "value": "Neither peptide internalization nor AF 488 efflux can be observed"}
    ]},
    {"compound": "CN(C)c1ccc2c(c1)Oc1cc(N(C)C)ccc1C21OC(=O)c2cc(C(=O)N[C@@H](Cc3ccc(O)cc3)C(=O)NCC(=O)N[C@@H](CCCNC(=N)N)C(=O)N[C@@H](CCCCN)C(=O)N[C@@H](CCCCN)C(=O)N[C@@H](CCCNC(=N)N)C(=O)N[C@@H](CCCNC(=N)N)C(=O)N[C@@H](CCC(N)=O)C(=O)N[C@@H](CCCNC(=N)N)C(=O)N[C@@H](CCCNC(=N)N)C(=O)N[C@@H](CCCNC(=N)N)C(=O)O)ccc21", "note": "[TAT, reference compound]", "values": [
      {"measurement": "Internalization of the peptide", "setting": "[5]", "value": "neither the internalization of the peptide nor the efflux of the fluorescent tracer could be registered"},
      {"measurement": "Internalization of peptide in GUVs", "setting": "[2]", "value": "internalized"},
      {"measurement": "Internalization of peptide in GUVs", "setting": "[4]", "value": "Neither peptide internalization nor AF 488 efflux can be observed"}
    ]}
  ]
}
